Experimental data reported in patent US20250002854A1, “METHODS OF GENERATING POPULATIONS OF TUMOUR-INFILTRATING T CELLS” (LYTIX BIOPHARMA AS, priority 2016, published 2025).

Assays:
B16F1 cells = experiment: LysoTracker DND-26, flow cytometry and confocal microscopy; type: cell-based, murine; settings: 27 μM, 60 minutes
Protocol: Flow cytometry: B16F1 cells were seeded in 6-well plates and allowed to adhere overnight. […] Untreated cells were used as a control. Cells were trypsinized and investigated on a FACS Calibur Flow cytometer, and the results were processed using FlowJo Software (Tree Star, Inc., Ashland, OR, USA). PI was utilized in some experiments to gate away cells with compromised plasma membrane.
Confocal microscopy: B16F1 cells were seeded in 8-well plates (Nunc) at 1×10^4 cells/well and allowed to adhere overnight. Next, cells were treated with 27 μM of LTX-401 for 60 minutes and labelled with LysoTracker DND-26 for 5 minutes and with Hoecsht33342 for nuclear staining. Cells were immediately investigated on a Zeiss Confocal microscope with a controlled temperature and atmosphere.

MDA-MB-435S = experiment: In vitro cytotoxicity, MTT assay; type: cell-based; settings: MDA-MB-435S human malignant melanoma
From the text: JM1, a rat hepatocellular carcinoma, HEPG2 and BEL7402, both human hepatocellular carcinomas, were kindly provided by Dr. Pål-Dag Line, Director, Department of Transplantation Medicine, Oslo University Hospital. B16F1 (ATCC, CRL-6323), a murine skin malignant melanoma, MDA-MB-435S (HTB-129), a human malignant melanoma originating from a breast metastases, Malme-3M (HTB-64), a human malignant melanoma derived from a lung metastases, MRC-5 (ATCC, CCL-171), normal human lung fibroblasts, SK-N-AS (ATCC, CRL-2137), a human neuroblastoma cell line derived from a bone marrow metastases, HT-29 (ATCC, HTB-38), a human colorectal adenocarcinoma and HUV-EC-C (ATCC, CRL-1730), a human vascular endothelium cell line, were all purchased from the American Type Culture Collection (ATCC-LGC Standards, Rockville, MD, USA). HaCat, a human keratinocyte cell line, was kindly provided by Dr. Ingvild Pettersen, Department of Host Microbe Interactions, University of Tromsø. A375, a malignant melanoma cell line of human origin, was purchased from Public Health England (PHE Culture Conditions, Porton, Down, Salisbury, UK). JM1, A375, BEL7402, HEPG2 and B16F1 were all maintained in culture media consisting of DMEM (high glucose), while SK-N-AS, HT-29 and MDA-MB-435S were cultured in an RPMI-1640 medium containing 2 mM L-glutamine and sodium bicarbonate. Malme-3M was cultured in RPMI-1640, containing 4 mM L-glutamine and 20% FBS (fetal bovine serum). Lastly, the three non-malignant cell lines, HUV-EC-C, MRC-5 and HaCat, were cultured, respectively, using the EGM-2 BulletKit (Lonza, MA), containing basal media and growth factors, MEM (normal glucose) also containing 2 mM L-glutamine and 1% non-essential amino acids and DMEM (normal glucose) containing 2 mM L-glutamine. All media were (if not specified otherwise) supplemented with 10% FBS, with the exception of the EGM-2 BulletKit, which is delivered with an aliquot of 10 ml FBS to yield a final concentration of 2% FBS in solution. […]

Question: How did the “LysoTracker DND-26 signal” value (B16F1 cells) turn out when `Cl.Cl.NCCNC(=O)C(CN)(CCCc1ccccc1)CCCc1ccccc1` [LTX-401] was run?
Answer: Its value is “induced a decreased signal”.

Question: What about the IC50 (MDA-MB-435S) of the same molecule?
Answer: The IC50 was 13.5 µM.
